Assays:
Assay type in all cases: in vivo
[1] = test system: sedge, umbrella (small-flower umbrella sedge, Cyperus difformis); assay: Test B flooded paddy test, umbrella sedge; details: Flood, 250 g ai/ha, applied to paddy water, 2-leaf stage, visual evaluation after 13 to 15 d
In short: (§1)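 Growth to two leaves preceded treatment. Flooding to 3 cm above soil surface, then water-applied compound; depth kept constant. Scored visually relative to controls after 13–15 d greenhouse; 100 means full control.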

[2] = test system: galium (catchweed bedstraw, Galium aparine); assay: Test A postemergence, galium; details: 0 to 100 scale; for Plant response rating, Galium: 0 no effect, 100 complete control; for Galium plant response rating: 0 is no effect, 100 is complete control
In short: (§2)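 Plants grown in a loam soil and sand blend were treated either preemergence by directed soil spray or postemergence when 2 to 10 cm tall (one- to two-leaf stage). Formulation: non-phytotoxic solvent mixture with surfactant. Greenhouse hold ~10 d, then visual injury assessment on a 0–100 scale.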

[3] = test system: ragweed (common ragweed, Ambrosia elatior); assay: Test A preemergence, ragweed; details: 0 to 100 scale, 0 is no effect, 100 is complete control
In short: as §2

[4] = test system: ryegrass, Italian (Lolium multiflorum); assay: Test A preemergence, Italian ryegrass; details: 0 to 100 scale, 0 is no effect, 100 is complete control
In short: as §2

kochia (Kochia scoparia) [5] = assay: Test A preemergence, kochia; details: 0 to 100 scale, 0 is no effect, 100 is complete control
In short: as §2

corn (Zea mays) = assay: Test A postemergence, corn; details: 0 to 100 scale; for Plant response rating, Corn: 0 no effect, 100 complete control; for Corn plant response rating: 0 is no effect, 100 is complete control
In short: as §2

kochia (Kochia scoparia) [6] = assay: Test A postemergence, kochia; details: 0 to 100 scale; for Plant response rating, Kochia: 0 no effect, 100 complete control; for Kochia plant response rating: 0 is no effect, 100 is complete control
In short: as §2

[7] = test system: ryegrass, Italian (Lolium multiflorum); assay: Test A postemergence, Italian ryegrass; details: 0 to 100 scale; for Plant response rating, Ryegrass, Italian: 0 no effect, 100 complete control; for Ryegrass, Italian plant response rating: 0 is no effect, 100 is complete control
In short: as §2

[8] = test system: barnyardgrass (Echinochloa crus-galli); assay: Test B flooded paddy test, barnyardgrass; details: Flood, 250 g ai/ha, applied to paddy water, 2-leaf stage, visual evaluation after 13 to 15 d
In short: as §1

[9] = test system: ragweed (common ragweed, Ambrosia elatior); assay: Test A postemergence, ragweed; details: 0 to 100 scale; for Plant response rating, Ragweed: 0 no effect, 100 complete control; for Ragweed plant response rating: 0 is no effect, 100 is complete control
In short: as §2

[10] = test system: foxtail, giant (Setaria faberii); assay: Test A postemergence, giant foxtail; details: 0 to 100 scale; for Plant response rating, Foxtail, Giant: 0 no effect, 100 complete control; for Foxtail, Giant plant response rating: 0 is no effect, 100 is complete control
In short: as §2

[11] = test system: blackgrass (Alopecurus myosuroides); assay: Test A postemergence, blackgrass; details: 0 to 100 scale; for Plant response rating, Blackgrass: 0 no effect, 100 complete control; for Blackgrass plant response rating: 0 is no effect, 100 is complete control
In short: as §2

[12] = test system: foxtail, giant (Setaria faberii); assay: Test A preemergence, giant foxtail; details: 0 to 100 scale, 0 is no effect, 100 is complete control
In short: as §2

[13] = test system: ducksalad (Heteranthera limosa); assay: Test B flooded paddy test, ducksalad; details: Flood, 250 g ai/ha, applied to paddy water, 2-leaf stage, visual evaluation after 13 to 15 d
In short: as §1

[14] = test system: barnyardgrass (Echinochloa crus-galli); assay: Test A postemergence, barnyardgrass; details: 0 to 100 scale; for Plant response rating, Barnyardgrass: 0 no effect, 100 complete control; for Barnyardgrass plant response rating: 0 is no effect, 100 is complete control
In short: as §2

[15] = test system: barnyardgrass (Echinochloa crus-galli); assay: Test A preemergence, barnyardgrass; details: 0 to 100 scale, 0 is no effect, 100 is complete control
In short: as §2

rice (Oryza sativa) = assay: Test B flooded paddy test, rice; details: Flood, 250 g ai/ha, applied to paddy water, 2-leaf stage, visual evaluation after 13 to 15 d
In short: as §1

[16] = test system: pigweed (Amaranthus retroflexus); assay: Test A postemergence, pigweed; details: 0 to 100 scale; for Plant response rating, Pigweed: 0 no effect, 100 complete control; for Pigweed plant response rating: 0 is no effect, 100 is complete control
In short: as §2

[17] = test system: pigweed (Amaranthus retroflexus); assay: Test A preemergence, pigweed; details: 0 to 100 scale, 0 is no effect, 100 is complete control
In short: as §2

[18] = test system: wheat (Triticum aestivum); assay: Test A postemergence, wheat; details: 0 to 100 scale; for Plant response rating, Wheat: 0 no effect, 100 complete control; for Wheat plant response rating: 0 is no effect, 100 is complete control
In short: as §2

SMILES | Plant response rating, Sedge, Umbrella (0 to 100 scale, 0 is no effect, 100 is complete control) [1] | Plant response rating, Galium ([2]; 125 g ai/ha) | Ragweed plant response rating ([3]; 125 g ai/ha) | Ragweed plant response rating ([3]; 500 g ai/ha) | Ryegrass, Italian plant response rating ([4]; 125 g ai/ha) | Ryegrass, Italian plant response rating ([4]; 500 g ai/ha) | Kochia plant response rating (kochia (Kochia scoparia) [5]; 125 g ai/ha) | Kochia plant response rating (kochia (Kochia scoparia) [5]; 500 g ai/ha) | Plant response rating, Corn (corn (Zea mays); 125 g ai/ha) | Plant response rating, Kochia (kochia (Kochia scoparia) [6]; 125 g ai/ha) | Plant response rating, Ryegrass, Italian ([7]; 125 g ai/ha) | Plant response rating, Barnyardgrass (0 to 100 scale, 0 is no effect, 100 is complete control) [8] | Plant response rating, Ragweed ([9]; 125 g ai/ha) | Plant response rating, Foxtail, Giant ([10]; 125 g ai/ha) | Plant response rating, Blackgrass ([11]; 125 g ai/ha) | Foxtail, Giant plant response rating ([12]; 125 g ai/ha) | Foxtail, Giant plant response rating ([12]; 500 g ai/ha) | Plant response rating, Ducksalad (0 to 100 scale, 0 is no effect, 100 is complete control) [13] | Plant response rating, Barnyardgrass ([14]; 125 g ai/ha) | Barnyardgrass plant response rating ([15]; 125 g ai/ha) | other results
C[C@H](Nc1ncc(C(F)(F)F)c(N)n1)c1cc2ccc(F)cc2s1 [Compound 47] | 0 | 0 | 0 | 0 | 0 | 0 | 0 | 0 | 0 | 0 | 0 | 0 | 0 | 0 | 0 | 0 | 0 | 0 | 0 | 0 | Galium plant response rating ([2]; 500 g ai/ha): 0; Corn plant response rating (corn (Zea mays); 500 g ai/ha): 0; Kochia plant response rating (kochia (Kochia scoparia) [6]; 500 g ai/ha): 60; Ryegrass, Italian plant response rating ([7]; 500 g ai/ha): 0; Ragweed plant response rating ([9]; 500 g ai/ha): 0; Foxtail, Giant plant response rating ([10]; 500 g ai/ha): 0; Blackgrass plant response rating ([11]; 500 g ai/ha): 30; Barnyardgrass plant response rating ([14]; 500 g ai/ha): 0; Barnyardgrass plant response rating ([15]; 500 g ai/ha): 0; Plant response rating, Rice (0 to 100 scale, 0 is no effect, 100 is complete control) (rice (Oryza sativa)): 0; Plant response rating, Pigweed ([16]; 125 g ai/ha): 20; Pigweed plant response rating ([16]; 500 g ai/ha): 80; Pigweed plant response rating ([17]; 125 g ai/ha): 0; Pigweed plant response rating ([17]; 500 g ai/ha): 30; Plant response rating, Wheat ([18]; 125 g ai/ha): 0; Wheat plant response rating ([18]; 500 g ai/ha): 0
CC[C@@H](Nc1ncc(C(F)(F)F)c(N)n1)c1cc2ccc(F)cc2s1 [Compound 48] | 0 | 60 | 30 | 100 | 0 | 60 | 0 | 80 | 0 | 30 | 0 | 0 | 20 | 10 | 30 | 60 | 90 | 0 | 0 | 0 | Galium plant response rating ([2]; 500 g ai/ha): 90; Corn plant response rating (corn (Zea mays); 500 g ai/ha): 30; Kochia plant response rating (kochia (Kochia scoparia) [6]; 500 g ai/ha): 90; Ryegrass, Italian plant response rating ([7]; 500 g ai/ha): 40; Ragweed plant response rating ([9]; 500 g ai/ha): 70; Foxtail, Giant plant response rating ([10]; 500 g ai/ha): 30; Blackgrass plant response rating ([11]; 500 g ai/ha): 30; Barnyardgrass plant response rating ([14]; 500 g ai/ha): 30; Barnyardgrass plant response rating ([15]; 500 g ai/ha): 40; Plant response rating, Rice (0 to 100 scale, 0 is no effect, 100 is complete control) (rice (Oryza sativa)): 0; Plant response rating, Pigweed ([16]; 125 g ai/ha): 90; Pigweed plant response rating ([16]; 500 g ai/ha): 100; Pigweed plant response rating ([17]; 125 g ai/ha): 60; Pigweed plant response rating ([17]; 500 g ai/ha): 100; Plant response rating, Wheat ([18]; 125 g ai/ha): 0; Wheat plant response rating ([18]; 500 g ai/ha): 0
CC[C@H](Nc1ncc(C(F)(F)F)c(N)n1)c1cc2ccc(F)cc2s1 [Compound 49] | 0 | 0 | 0 | 0 | 0 | 0 | 0 | 0 | 0 | 0 | 0 | 0 | 0 | 0 | 0 | 0 | 0 | 0 | 0 | 0 | Galium plant response rating ([2]; 500 g ai/ha): 0; Corn plant response rating (corn (Zea mays); 500 g ai/ha): 0; Kochia plant response rating (kochia (Kochia scoparia) [6]; 500 g ai/ha): 0; Ryegrass, Italian plant response rating ([7]; 500 g ai/ha): 0; Ragweed plant response rating ([9]; 500 g ai/ha): 0; Foxtail, Giant plant response rating ([10]; 500 g ai/ha): 10; Blackgrass plant response rating ([11]; 500 g ai/ha): 0; Barnyardgrass plant response rating ([14]; 500 g ai/ha): 0; Barnyardgrass plant response rating ([15]; 500 g ai/ha): 0; Plant response rating, Rice (0 to 100 scale, 0 is no effect, 100 is complete control) (rice (Oryza sativa)): 0; Plant response rating, Pigweed ([16]; 125 g ai/ha): 0; Pigweed plant response rating ([16]; 500 g ai/ha): 50; Pigweed plant response rating ([17]; 125 g ai/ha): 0; Pigweed plant response rating ([17]; 500 g ai/ha): 0; Plant response rating, Wheat ([18]; 125 g ai/ha): 0; Wheat plant response rating ([18]; 500 g ai/ha): 0
CC(C)[C@@H](Nc1ncc(C(F)(F)F)c(N)n1)c1cc2ccccc2s1 [Compound 50] | 0 | 10 | 0 | 0 | 0 | 0 | 40 | 60 | 0 | 20 | 30 | 0 | 0 | 0 | 0 | 0 | 10 | 0 | 0 | 0 | Galium plant response rating ([2]; 500 g ai/ha): 20; Corn plant response rating (corn (Zea mays); 500 g ai/ha): 10; Kochia plant response rating (kochia (Kochia scoparia) [6]; 500 g ai/ha): 60; Ryegrass, Italian plant response rating ([7]; 500 g ai/ha): 0; Ragweed plant response rating ([9]; 500 g ai/ha): 30; Foxtail, Giant plant response rating ([10]; 500 g ai/ha): 40; Blackgrass plant response rating ([11]; 500 g ai/ha): 0; Barnyardgrass plant response rating ([14]; 500 g ai/ha): 0; Barnyardgrass plant response rating ([15]; 500 g ai/ha): 10; Plant response rating, Rice (0 to 100 scale, 0 is no effect, 100 is complete control) (rice (Oryza sativa)): 0; Plant response rating, Pigweed ([16]; 125 g ai/ha): 60; Pigweed plant response rating ([16]; 500 g ai/ha): 90; Pigweed plant response rating ([17]; 125 g ai/ha): 0; Pigweed plant response rating ([17]; 500 g ai/ha): 40; Plant response rating, Wheat ([18]; 125 g ai/ha): 0; Wheat plant response rating ([18]; 500 g ai/ha): 0
C[C@@H](Nc1ncc(C(F)(F)F)c(N)n1)c1coc2cc(Cl)ccc12 [Compound 55] | 98 | 70 | 100 | 100 | 20 | 70 | 40 | 90 | 10 | 70 | 30 | 30 | 50 | 20 | 0 | 50 | 90 | 70 | 30 | 80 | Plant response rating, Galium ([2]; 500 g ai/ha): 90; Plant response rating, Corn (corn (Zea mays); 500 g ai/ha): 0; Plant response rating, Kochia (kochia (Kochia scoparia) [6]; 500 g ai/ha): 90; Plant response rating, Ryegrass, Italian ([7]; 500 g ai/ha): 30; Plant response rating, Ragweed ([9]; 500 g ai/ha): 80; Plant response rating, Foxtail, Giant ([10]; 500 g ai/ha): 90; Plant response rating, Blackgrass ([11]; 500 g ai/ha): 20; Plant response rating, Barnyardgrass ([14]; 500 g ai/ha): 70; Barnyardgrass plant response rating ([15]; 500 g ai/ha): 80; Plant response rating, Rice (0 to 100 scale, 0 is no effect, 100 is complete control) (rice (Oryza sativa)): 0; Plant response rating, Pigweed ([16]; 125 g ai/ha): 100; Plant response rating, Pigweed ([16]; 500 g ai/ha): 100; Pigweed plant response rating ([17]; 125 g ai/ha): 80; Pigweed plant response rating ([17]; 500 g ai/ha): 100; Plant response rating, Wheat ([18]; 125 g ai/ha): 0; Plant response rating, Wheat ([18]; 500 g ai/ha): 0
